Here are results for 12 compounds from patent US12252481B2, “Anti-viral compounds” (Aligos Therapeutics, Inc., priority 2021, dated 2025).

One data set concerns the target T1, human cathepsin L (Homo sapiens, UniProt P07711).
T1 construct: purchased R&D Systems
Nature of the data set: Cathepsin L assay (Z-FR-AMC fluorescence). It is filed as biochemical. The note with it: 10 pM human cathepsin L, 30 mins preincubation, Z-FR-AMC 2 μM. A digest of the protocol:
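IC50 values were taken from four-parameter fits of fluorescence read at 355/460 nm every 2 minutes for 30 minutes. The reaction started when 2 μM Z-FR-AMC was added. Before that, 10 pM human cathepsin L had been preincubated with inhibitor for 30 minutes.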

The test system of data set [1] is B.1.1.7 lineage SARS-CoV-2. The data set can be described thus: microbe, parasite or virus in culture. Format: cell-based. The note with it: read-out: A549-dual_ACE2_TMPRSS2 (EC50).
For a further data set, the target named is T2, SARS-Cov-2 3CLpro (Severe acute respiratory syndrome coronavirus 2, UniProt P0DTD1).
T2 construct: 3CLpro and HRV3C was added using a Multidrop Combi
The data set can be described thus: biochemical. The note with it: read-out: SARS-Cov-2 IC50 (class).

The target of another data set is T3, HRV3C (Human rhinovirus 14, UniProt P03303).
T3 construct: 3CLpro and HRV3C was added using a Multidrop Combi
T3 sequence (P03303 1538-1719): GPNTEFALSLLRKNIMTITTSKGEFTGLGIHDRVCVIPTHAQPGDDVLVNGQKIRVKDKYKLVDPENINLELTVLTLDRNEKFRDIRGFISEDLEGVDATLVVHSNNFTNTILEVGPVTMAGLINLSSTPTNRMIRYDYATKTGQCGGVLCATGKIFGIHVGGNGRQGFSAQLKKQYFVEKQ
Nature of the data set: biochemical. Details: species or system HRV. The note with it: HRV3C, 30 mins preincubation, SAMDI-MS.

Data set [2] relates to A549-dual_ACE2_TMPRSS2 cells. The note with it: read-out: A549-dual_ACE2_TMPRSS2 (CC50); assay medium without virus, MTS, numeric values.
In the next data set the test system is HeLa cells. Nature of the data set: Cytotoxicity in HeLa cells without OC43 virus (cell-titer-glo). The note with it: HeLa cells without OC43 virus.
Data set [3] has as its system human beta-coronavirus OC43. The data set can be described thus: OC43 coronavirus antiviral assay in HeLa cells (cytopathic effect, cell-titer-glo). Format: cell-based. The note with it: 6 days at 33° C., read-out: EC50 (class).
For another data set, the system named is Vero E6-eGFP cells. The note with it: read-out: VeroE6 + CP (CC50), absence of virus, numeric values.
Data set [4] relates to SARS-CoV-2-GHB-03021/2020. Format: cell-based. The note with it: read-out: VeroE6 + CP (EC50).
Setting [5] is: 3CLpro, 30 mins preincubation, SAMDI-MS.
[6] abbreviates: Severe acute respiratory syndrome coronavirus 2, 96 h.
Where [7] appears, read: Betacoronavirus 1, OC43, HeLa, 144 h.

The IC50 is the point on the concentration scale where inhibition reaches its midpoint. What is called EC50 is the midpoint of the concentration-response curve. The term CC50 denotes the concentration giving 50% cytotoxicity.

Read-outs that look alike come from different tables or passages of the source. Where only a bound is given, the exact number is not on record here.

T1 sequence (P07711 114-333): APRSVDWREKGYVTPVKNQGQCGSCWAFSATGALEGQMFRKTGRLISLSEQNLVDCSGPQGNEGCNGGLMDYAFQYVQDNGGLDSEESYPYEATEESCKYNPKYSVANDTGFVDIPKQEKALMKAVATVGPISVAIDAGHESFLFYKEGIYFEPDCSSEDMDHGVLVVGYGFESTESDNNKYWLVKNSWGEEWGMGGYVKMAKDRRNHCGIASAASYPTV

As for `CC(C)(C)[C@H](NC(=O)C(F)(F)F)C(=O)N1C[C@@H]2[C@H]3C[C@@H]([C@@H]2[C@H]1C(=O)N[C@H](C#N)C[C@@H]1CCNC1=O)[C@H](F)C3` [Example 86, (1S,2R,3S,6R,7S,9R)—N-[(1S)-1-cyano-2-[(3S)-2-oxopyrrolidin-3-yl]ethyl]-4-[(2S)-3,3-dimethyl-2-(2,2,2-trifluoroacetamido)butanoyl]-9-fluoro-4-azatricyclo[5.2.1.0^{2,6}]decane-3-carboxamide], the IC50 on human cathepsin L was at least 10 µM; at SARS-Cov-2 3CLpro it was below 0.02 µM; on HRV3C (read-out: HRV IC50 (bound)), above 0.5 µM. For the same compound, the EC50 in [1] and in [3] was below 0.1 µM each time. For the same compound, the CC50 is above 10 µM in [2] and above 100 µM in the data set on HeLa cells.
Regarding `CC(C)(C)[C@H](NC(=O)C(F)(F)F)C(=O)N1C[C@H]2[C@@H]([C@H]1C(=O)NC(C[C@@H]1CCNC1=O)C(=O)C(=O)NC1CC1)[C@H]1C=C[C@@H]2C1` (stereo partly drawn) [Example 10, N-cyclopropyl-3-{[(1R,2S,3S,6R,7S)-4-[(2S)-3,3-dimethyl-2-(2,2,2-trifluoroacetamido)butanoyl]-4-azatricyclo[5.2.1.0^{2,6}]dec-8-en-3-yl]formamido}-2-oxo-4-[(3S)-2-oxopyrrolidin-3-yl]butanamide], the results for the IC50 on human cathepsin L, on SARS-Cov-2 3CLpro and on HRV3C (read-out: HRV IC50 (class)) were at least 10 µM, below 0.02 µM and 0.02 to 0.2 µM, respectively. Also, the CC50 with Vero E6-eGFP cells was above 50 µM; in [2] it was above 10 µM; in the data set on HeLa cells (read-out: CC50 (class)) it was above 10 µM. Moreover, in [3], the EC50 is 0.1 to 1 µM.
`CC(C)(C1CC1)[C@H](NC(=O)C(F)(F)F)C(=O)N1C[C@H]2[C@@H]([C@H]1C(=O)N[C@H](C#N)C[C@@H]1CCNC1=O)[C@H]1C=C[C@@H]2C1` [Compound 69, (1R,2S,3S,6R,7S)—N-[(1S)-1-cyano-2-[(3S)-2-oxopyrrolidin-3-yl]ethyl]-4-[(2S)-3-cyclopropyl-3-methyl-2-(2,2,2-trifluoroacetamido)butanoyl]-4-azatricyclo[5.2.1.0^{2,6}]dec-8-ene-3-carboxamide]: the results for the IC50 at human cathepsin L, at SARS-Cov-2 3CLpro and on HRV3C (read-out: HRV IC50 (bound)) were at least 10 µM, below 0.02 µM and above 10 µM, respectively. For the same compound, the EC50 in data set [1] and in [3] was below 0.1 µM throughout. In addition, the results for the CC50 (in data set [2]; in the data set with HeLa cells) were above 10 µM and above 100 µM, respectively.
As to `CC(C)(C)[C@H](NC(=O)C(F)(F)F)C(=O)N1C[C@@H]2[C@H]3C[C@@H]([C@@H]2[C@H]1C(=O)N[C@H](C#N)C[C@@H]1CCNC1=O)C1(CC1)C3` [Compound 60, (1′S,2′R,5′S,6′S,7′S)—N-[(1S)-1-cyano-2-[(3S)-2-oxopyrrolidin-3-yl]ethyl]-4′-[(2S)-3,3-dimethyl-2-(2,2,2-trifluoroacetamido)butanoyl]-4′-azaspiro[cyclopropane-1,8′-tricyclo[5.2.1.0^{2,6}]decane]-5′-carboxamide], the IC50 against human cathepsin L is at least 10 µM; on SARS-Cov-2 3CLpro, 0.02 to 0.2 µM; at HRV3C (read-out: HRV IC50 (bound)) it was above 10 µM. Further, the EC50 in data set [1] fell in the range of 0.1 to 1 µM; in data set [3], 1 to 10 µM. In addition, the CC50 is above 10 µM in data set [2] and above 100 µM in the data set with HeLa cells.
`C=C1C[C@@H]2C[C@H]1[C@H]1[C@@H]2CN(C(=O)[C@@H](NC(=O)C(F)(F)F)C(C)(C)C)[C@@H]1C(=O)N[C@H](C#N)C[C@@H]1CCNC1=O` [Compound 62, (1S,2S,3S,6R,7S)—N-[(1S)-1-cyano-2-[(3S)-2-oxopyrrolidin-3-yl]ethyl]-4-[(2S)-3,3-dimethyl-2-(2,2,2-trifluoroacetamido)butanoyl]-9-methylidene-4-azatricyclo[5.2.1.0^{2,6}]decane-3-carboxamide]: the IC50 at human cathepsin L is at least 10 µM; at SARS-Cov-2 3CLpro, below 0.02 µM; on HRV3C (read-out: HRV IC50 (bound)), above 10 µM. Further, the EC50 in data set [1] and in data set [3] was below 0.1 µM each time. The CC50 was above 10 µM in data set [2] and above 100 µM in the data set with HeLa cells.
On to `CC(C)(C)[C@H](NC(=O)C(F)(F)F)C(=O)N1C[C@@H]2[C@H]3C[C@@H]([C@@H]2[C@H]1C(=O)N[C@H](C#N)C[C@@H]1CCNC1=O)C(F)(F)C3` [Compound 61, (1S,2R,3S,6R,7S)—N-[(1S)-1-cyano-2-[(3S)-2-oxopyrrolidin-3-yl]ethyl]-4-[(2S)-3,3-dimethyl-2-(2,2,2-trifluoroacetamido)butanoyl]-9,9-difluoro-4-azatricyclo[5.2.1.0^{2,6}]decane-3-carboxamide], for which the values for the half-maximal inhibitory concentration (IC50) against human cathepsin L, at SARS-Cov-2 3CLpro and on HRV3C (read-out: HRV IC50 (bound)) were at least 10 µM, below 0.02 µM and above 10 µM, respectively. The CC50 was above 10 µM in data set [2] and above 100 µM in the data set on HeLa cells. In addition, in [3], the EC50 was in the range of 0.1 to 1 µM.
For the compound `CC(C)(C)[C@H](NC(=O)C(F)(F)F)C(=O)N1C[C@@]2(F)[C@@H]([C@H]1C(=O)N[C@H](C#N)C[C@@H]1CCNC1=O)[C@H]1C=C[C@@H]2C1` [Example 94, (1R,2R,3S,6S,7S)—N-[(1S)-1-cyano-2-[(3S)-2-oxopyrrolidin-3-yl]ethyl]-4-[(2S)-3,3-dimethyl-2-(2,2,2-trifluoroacetamido)butanoyl]-6-fluoro-4-azatricyclo[5.2.1.0^{2,6}]dec-8-ene-3-carboxamide], the EC50 in data set [1] and in data set [3] was below 0.1 µM in each case. Moreover, the IC50 was below 0.02 µM at SARS-Cov-2 3CLpro and above 0.5 µM at HRV3C (read-out: HRV IC50 (bound)). The figures for the CC50 (in [2]; with HeLa cells) were above 1 µM and above 100 µM, respectively.
As for `CC(C)(C)[C@H](NC(=O)C(F)(F)F)C(=O)N1C[C@H]2[C@@H]([C@H]1C(=O)N[C@H](C#N)CC1CC3(COC3)NC1=O)[C@H]1C=C[C@@H]2C1` (stereo partly drawn) [Compound 106, (1R,2S,3S,6R,7S)—N-[(1S)-1-cyano-2-{6-oxo-2-oxa-5-azaspiro[3.4]octan-7-yl}ethyl]-4-[(2S)-3,3-dimethyl-2-(2,2,2-trifluoroacetamido)butanoyl]-4-azatricyclo[5.2.1.0^{2,6}]dec-8-ene-3-carboxamide], the concentration giving a half-maximal response (EC50) in [1] and in data set [3] was below 0.1 µM in each case. Further, the IC50 at SARS-Cov-2 3CLpro was below 0.02 µM; on HRV3C (read-out: HRV IC50 (bound)) it was above 0.5 µM. The figures for the CC50 (in data set [2]; with HeLa cells) were above 10 µM and above 100 µM, respectively.
Take `CC(C)(C)[C@H](NC(=O)C(F)(F)F)C(=O)N1C[C@@H]2[C@H]3CC[C@H](CC3)[C@@H]2[C@H]1C(=O)N[C@H](C#N)C[C@@H]1CCNC1=O` [Compound 71b]: the EC50 in data set [1] and in [3] was below 0.1 µM throughout. Moreover, the values for the IC50 at SARS-Cov-2 3CLpro (setting [5]) and on HRV3C (read-out: HRV IC50 (bound)) were below 0.02 µM and above 10 µM, respectively. Further, the CC50 in data set [2] is above 10 µM; in the data set with HeLa cells it was above 100 µM.
On to `CC(C)(C)[C@H](NC(=O)C(F)(F)F)C(=O)N1C[C@H]2[C@@H]([C@H]1C(=O)N[C@H](C#N)C[C@@H]1CCNC1=O)[C@H]1CC[C@@H]2O1` (mixture of isomers) [Compound 58, (1S,3aR,4S,7R,7aS)-N-((S)-1-cyano-2-((S)-2-oxopyrrolidin-3-yl)ethyl)-2-((S)-3,3-dimethyl-2-(2,2,2-trifluoroacetamido)butanoyl)octahydro-1H-4,7-epoxyisoindole-1-carboxamide], for which the figures for the IC50 on human cathepsin L, on SARS-Cov-2 3CLpro (setting [5]) and at HRV3C (read-out: HRV IC50 (bound)) were at least 10 µM, 0.2 to 2 µM and above 10 µM, respectively. For the same compound, the EC50 in data set [1] (setting [6]), in data set [4] and in data set [3] (setting [7]) was 1 to 10 µM each time.
For the compound `CC(C)(C)[C@H](NC(=O)C(F)(F)F)C(=O)N1C[C@H]2[C@@H]([C@H]1C(=O)N[C@H](C#N)C[C@@H]1CCNC1=O)[C@H]1C=C[C@@H]2CC1` [Compound 59b], the IC50 against human cathepsin L was at least 10 µM; at SARS-Cov-2 3CLpro (setting [5]) it was below 0.02 µM; at HRV3C (read-out: HRV IC50 (bound)) it was above 10 µM. The CC50 is above 10 µM in data set [2] and above 100 µM in the data set on HeLa cells. In data set [3], the EC50 was below 0.1 µM.
For `CN1CC(C[C@@H](C#N)NC(=O)[C@@H]2[C@@H]3[C@H](CN2C(=O)[C@@H](NC(=O)C(F)(F)F)C(C)(C)C)[C@@H]2C=C[C@H]3C2)C(=O)N1` (stereo partly drawn) [Compound 49, (1S,3aR,4S,7R,7aS)-N-((S)-1-cyano-2-(1-methyl-3-oxopyrazolidin-4-yl)ethyl)-2-((S)-3,3-dimethyl-2-(2,2,2-trifluoroacetamido)butanoyl)-2,3,3a,4,7,7a-hexahydro-1H-4,7-methanoisoindole-1-carboxamide], the results for the IC50 at human cathepsin L, at SARS-Cov-2 3CLpro (setting [5]) and on HRV3C (read-out: HRV IC50 (bound)) were at least 10 µM, below 0.02 µM and above 10 µM, respectively. For the same compound, the half-maximal effective concentration (EC50) in data set [1] (setting [6]), in data set [4] and in data set [3] (setting [7]) was 0.1 to 1 µM throughout.
